{"source": "patent US20250313563A1", "about": "“GLYCOGEN SYNTHASE KINASE 3 INHIBITORS AND USES THEREOF” (The Broad Institute, Inc., priority 2022, published 2025)", "key": {"[1]": {"biological_target": "GSK3α (GST-full length GSK3α) (Homo sapiens (Human), UniProt P49840)", "sequence (P49840 whole entry)": "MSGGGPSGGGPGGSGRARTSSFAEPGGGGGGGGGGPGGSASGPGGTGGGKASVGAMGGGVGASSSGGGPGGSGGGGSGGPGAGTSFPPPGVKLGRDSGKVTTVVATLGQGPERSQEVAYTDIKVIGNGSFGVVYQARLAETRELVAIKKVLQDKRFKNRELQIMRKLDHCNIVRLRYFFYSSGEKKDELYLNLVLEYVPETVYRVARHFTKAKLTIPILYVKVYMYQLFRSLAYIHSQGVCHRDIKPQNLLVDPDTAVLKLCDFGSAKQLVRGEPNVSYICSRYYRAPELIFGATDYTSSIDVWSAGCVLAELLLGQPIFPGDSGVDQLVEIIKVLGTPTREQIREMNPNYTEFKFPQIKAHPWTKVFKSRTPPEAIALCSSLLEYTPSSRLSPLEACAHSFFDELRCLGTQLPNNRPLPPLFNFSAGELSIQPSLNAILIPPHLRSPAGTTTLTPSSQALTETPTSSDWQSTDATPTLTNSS", "test": "GSK3α TR-FRET kinase assay", "format": "biochemical", "summary_of_the_method": "(§1)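 Full-length GST-tagged human enzyme (1 nM) is exposed to test compound for 30 min before substrates are added. Phosphorylation of a primed biotinylated glycogen synthase peptide proceeds 100 min at room temperature at low ATP (4 μM α; 2 μM β) or high ATP (1 mM). Product is quantified by TR-FRET.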"}, "[2]": {"biological_target": "GSK3b (GST-full length GSK3b) (Homo sapiens (Human), UniProt P49841)", "sequence (P49841 whole entry)": "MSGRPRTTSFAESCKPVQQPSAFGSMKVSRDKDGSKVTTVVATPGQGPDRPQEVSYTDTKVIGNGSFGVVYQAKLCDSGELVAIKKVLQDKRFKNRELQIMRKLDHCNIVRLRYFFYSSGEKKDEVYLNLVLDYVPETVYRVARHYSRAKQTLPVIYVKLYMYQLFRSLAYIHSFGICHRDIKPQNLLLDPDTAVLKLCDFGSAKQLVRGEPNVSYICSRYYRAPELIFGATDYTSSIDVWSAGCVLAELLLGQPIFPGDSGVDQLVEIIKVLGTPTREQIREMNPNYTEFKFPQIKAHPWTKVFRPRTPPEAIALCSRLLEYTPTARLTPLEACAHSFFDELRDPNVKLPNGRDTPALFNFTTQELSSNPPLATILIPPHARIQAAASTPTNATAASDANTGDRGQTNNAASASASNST", "test": "GSK3b TR-FRET kinase assay", "format": "biochemical", "summary_of_the_method": "as §1"}, "[3]": {"conditions": "1 nM GSK3α, 4 μM ATP, 30 minute preincubation, geometric mean, read-out: GSK3-A TR-FRET BIOCHEMICAL (TR-FRET), GMean, IC50"}, "[4]": {"conditions": "1 nM GSK3b, 2 μM ATP, 30 minute preincubation, geometric mean, read-out: GSK3-B TR-FRET BIOCHEMICAL (TR-FRET), GMean, IC50"}, "[5]": {"conditions": "1 nM GSK3α, 4 μM ATP, 30 minute preincubation, Table 16, read-out: GSK3-A TR-FRET BIOCHEMICAL (TR-FRET), IC50"}, "[6]": {"conditions": "1 nM GSK3b, 2 μM ATP, 30 minute preincubation, Table 16, read-out: GSK3-B TR-FRET BIOCHEMICAL (TR-FRET), IC50"}, "[7]": {"conditions": "1 nM GSK3α, 4 μM ATP, 30 minute preincubation, read-out: GSK3-A TR-FRET BIOCHEMICAL (TR-FRET), IC50"}, "[8]": {"conditions": "1 nM GSK3b, 2 μM ATP, 30 minute preincubation, read-out: GSK3-B TR-FRET BIOCHEMICAL (TR-FRET), IC50"}}, "note": "Read-outs that look alike come from different tables or passages of the source."}
{"smiles": "CCC1(c2ccccc2)C2=C(CCC(C)(C)C2=O)Nc2n[nH]cc21", "note": "(centres unmarked) [Compound 835310]", "values": [{"measurement": "IC50", "setting": "[1]; [3]", "value": "0.1 to 1", "unit": "µM"}, {"measurement": "IC50", "setting": "[2]; [4]", "value": "1 to 5", "unit": "µM"}]}
{"smiles": "CCC1(c2cccc(Br)c2)C2=C(CC(C)(C)C(F)C2=O)Nc2n[nH]cc21", "note": "(centres unmarked) [Compound 835312]", "values": [{"measurement": "IC50", "setting": "[1]; [3]", "value": "> 5", "unit": "µM"}, {"measurement": "IC50", "setting": "[2]; [4]", "value": "> 5", "unit": "µM"}]}
{"smiles": "CC[C@]1(c2cccc(Br)c2)C2=C(CC(C)(C)[C@@H](F)C2=O)Nc2n[nH]cc21", "note": "[Compound 835313]", "values": [{"measurement": "IC50", "setting": "[1]; [3]", "value": "> 5", "unit": "µM"}, {"measurement": "IC50", "setting": "[2]; [4]", "value": "> 5", "unit": "µM"}]}
{"smiles": "CCC1(c2cccc(Br)c2)C2=C(CC(C)(C)C(F)C2=O)Nc2n[nH]cc21", "note": "(centres unmarked) [Compound 835314]", "values": [{"measurement": "IC50", "setting": "[1]; [3]", "value": "≤ 0.1", "unit": "µM"}, {"measurement": "IC50", "setting": "[2]; [4]", "value": "0.1 to 1", "unit": "µM"}]}
{"smiles": "CCC1(c2cccc(Br)c2)C2=C(CC(C)(C)C(F)C2=O)Nc2n[nH]cc21", "note": "(centres unmarked) [Compound 835315]", "values": [{"measurement": "IC50", "setting": "[1]; [3]", "value": "≤ 0.1", "unit": "µM"}, {"measurement": "IC50", "setting": "[1]; read-out: GSK3-A (TR-FRET 1 mM ATP), GMean, IC50, 1 mM ATP, geometric mean", "value": "0.1 to 1", "unit": "µM"}, {"measurement": "IC50", "setting": "[2]; [4]", "value": "≤ 0.1", "unit": "µM"}, {"measurement": "IC50", "setting": "[2]; read-out: GSK3-B (TR-FRET 1 mM ATP), GMean, IC50, 1 mM ATP, geometric mean", "value": "1 to 5", "unit": "µM"}]}
{"smiles": "CCC1(c2cccc(-c3ccnc(C)c3)c2)C2=C(CC(C)(C)CC2=O)Nc2n[nH]cc21", "note": "(centres unmarked) [Compound 840857]", "values": [{"measurement": "IC50", "setting": "[1]; [3]", "value": "≤ 0.1", "unit": "µM"}, {"measurement": "IC50", "setting": "[2]; [4]", "value": "0.1 to 1", "unit": "µM"}]}
{"smiles": "CCC1(COC)C2=C(CC(C)(C)CC2=O)Nc2n[nH]cc21", "note": "(centres unmarked) [Compound 841866]", "values": [{"measurement": "IC50", "setting": "[1]; [5]", "value": "> 5", "unit": "µM"}, {"measurement": "IC50", "setting": "[2]; [6]", "value": "> 5", "unit": "µM"}]}
{"smiles": "CN1CCC2(C1)C1=C(CC(C)(C)CC1=O)Nc1n[nH]cc12", "note": "(centres unmarked) [Compound 841867]", "values": [{"measurement": "IC50", "setting": "[1]; [5]", "value": "> 5", "unit": "µM"}, {"measurement": "IC50", "setting": "[2]; [6]", "value": "> 5", "unit": "µM"}]}
{"smiles": "CCC1(c2cccc(N(C)c3ccncc3)c2)C2=C(CC(C)(C)CC2=O)Nc2n[nH]cc21", "note": "(centres unmarked) [Compound 853910]", "values": [{"measurement": "IC50", "setting": "[1]; [3]", "value": "0.1 to 1", "unit": "µM"}, {"measurement": "IC50", "setting": "[2]; [4]", "value": "1 to 5", "unit": "µM"}]}
{"smiles": "CCC1(c2cccc(-n3ccnc3)c2)C2=C(CC(C)(C)CC2=O)Nc2n[nH]cc21", "note": "(centres unmarked) [Compound 854926]", "values": [{"measurement": "IC50", "setting": "[1]; [3]", "value": "≤ 0.1", "unit": "µM"}, {"measurement": "IC50", "setting": "[2]; [4]", "value": "0.1 to 1", "unit": "µM"}]}
{"smiles": "CC1(C)CC(=O)C2=C(C1)Nc1n[nH]c(CCC(F)(F)F)c1C2(C)c1ccccc1", "note": "(centres unmarked) [Compound 856948]", "values": [{"measurement": "IC50", "setting": "[1]; [3]", "value": "> 5", "unit": "µM"}, {"measurement": "IC50", "setting": "[2]; [4]", "value": "> 5", "unit": "µM"}]}
{"smiles": "CC[C@@]1(c2cccc(C(F)(F)F)c2)C2=C(CCN(C(C)C)C2=O)Nc2n[nH]cc21", "note": "[Compound 857336]", "values": [{"measurement": "IC50", "setting": "[1]; [7]", "value": "≤ 0.1", "unit": "µM"}, {"measurement": "IC50", "setting": "[2]; [8]", "value": "0.1 to 1", "unit": "µM"}]}
{"smiles": "CC[C@]1(c2cccc(C(F)(F)F)c2)C2=C(CCN(C(C)C)C2=O)Nc2n[nH]cc21", "note": "[Compound 857362]", "values": [{"measurement": "IC50", "setting": "[1]; [7]", "value": "> 5", "unit": "µM"}, {"measurement": "IC50", "setting": "[2]; [8]", "value": "> 5", "unit": "µM"}]}
{"smiles": "CCC1(c2ccccc2)C2=C(Nc3n[nH]cc31)C1CCC1C2=O", "note": "(centres unmarked) [Compound 861716]", "values": [{"measurement": "IC50", "setting": "[1]; [5]", "value": "1 to 5", "unit": "µM"}, {"measurement": "IC50", "setting": "[2]; [6]", "value": "> 5", "unit": "µM"}]}
{"smiles": "CCC1(c2ccccc2)C2=C(CSC(C)(C)C2=O)Nc2n[nH]cc21", "note": "(centres unmarked) [Compound 862028]", "values": [{"measurement": "IC50", "setting": "[1]; [7]", "value": "0.1 to 1", "unit": "µM"}, {"measurement": "IC50", "setting": "[2]; [8]", "value": "1 to 5", "unit": "µM"}]}
{"smiles": "CCC1(c2cccc(-c3ccnc(C)c3)c2)C2=C(CC(C)(C)CC2=O)Nc2n[nH]cc21", "note": "(centres unmarked) [Compound 865170]", "values": [{"measurement": "IC50", "setting": "[1]; [3]", "value": "1 to 5", "unit": "µM"}, {"measurement": "IC50", "setting": "[2]; [4]", "value": "> 5", "unit": "µM"}]}
{"smiles": "CCC1(c2cccc(N3CCCC3=O)c2)C2=C(CC(C)(C)CC2=O)Nc2n[nH]cc21", "note": "(centres unmarked) [Compound 865171]", "values": [{"measurement": "IC50", "setting": "[1]; [3]", "value": "≤ 0.1", "unit": "µM"}, {"measurement": "IC50", "setting": "[2]; [4]", "value": "0.1 to 1", "unit": "µM"}]}
{"smiles": "CC1(C)CC(=O)C2=C(C1)Nc1n[nH]cc1C21CCC(C(F)(F)F)CC1", "note": "(centres unmarked) [Compound 865193]", "values": [{"measurement": "IC50", "setting": "[1]; 1 nM GSK3α, 4 μM ATP, 30 minute preincubation, Table 16, read-out: GSK3-A TR-FRET BIOCHEMICAL (TR-FRET)", "value": "≤ 0.1", "unit": "µM"}, {"measurement": "IC50", "setting": "[1]; GSK3-A (TR-FRET 1 mM ATP), GMean, IC50, 1 mM ATP, geometric mean", "value": "0.1 to 1", "unit": "µM"}, {"measurement": "IC50", "setting": "[2]; 1 nM GSK3b, 2 μM ATP, 30 minute preincubation, Table 16, read-out: GSK3-B TR-FRET BIOCHEMICAL (TR-FRET)", "value": "≤ 0.1", "unit": "µM"}, {"measurement": "IC50", "setting": "[2]; GSK3-B (TR-FRET 1 mM ATP), GMean, IC50, 1 mM ATP, geometric mean", "value": "1 to 5", "unit": "µM"}]}
{"smiles": "CCC1(c2cccc(CN(C)C(C)=O)c2)C2=C(CC(C)(C)CC2=O)Nc2n[nH]cc21", "note": "(centres unmarked) [Compound 865194]", "values": [{"measurement": "IC50", "setting": "[1]; [3]", "value": "0.1 to 1", "unit": "µM"}, {"measurement": "IC50", "setting": "[2]; [4]", "value": "1 to 5", "unit": "µM"}]}
{"smiles": "CCC1(c2cccc(CN(C)C(=O)C(C)C)c2)C2=C(CC(C)(C)CC2=O)Nc2n[nH]cc21", "note": "(centres unmarked) [Compound 865195]", "values": [{"measurement": "IC50", "setting": "[1]; [3]", "value": "0.1 to 1", "unit": "µM"}, {"measurement": "IC50", "setting": "[2]; [4]", "value": "> 5", "unit": "µM"}]}
{"smiles": "CCC1(c2cccc(CN(C)C(=O)COC)c2)C2=C(CC(C)(C)CC2=O)Nc2n[nH]cc21", "note": "(centres unmarked) [Compound 865196]", "values": [{"measurement": "IC50", "setting": "[1]; [3]", "value": "0.1 to 1", "unit": "µM"}, {"measurement": "IC50", "setting": "[2]; [4]", "value": "> 5", "unit": "µM"}]}
{"smiles": "CC[C@]1(c2ccccc2)C2=C(Nc3n[nH]cc31)[C@@H](C)C[C@H](C)C2=O", "note": "[Compound 865198]", "values": [{"measurement": "IC50", "setting": "[1]; [3]", "value": "0.1 to 1", "unit": "µM"}, {"measurement": "IC50", "setting": "[2]; [4]", "value": "1 to 5", "unit": "µM"}]}
{"smiles": "CC[C@@]1(c2ccccc2)C2=C(Nc3n[nH]cc31)[C@H](C)C[C@@H](C)C2=O", "note": "[Compound 865199]", "values": [{"measurement": "IC50", "setting": "[1]; [3]", "value": "1 to 5", "unit": "µM"}, {"measurement": "IC50", "setting": "[2]; [4]", "value": "> 5", "unit": "µM"}]}
{"smiles": "CC[C@]1(c2ccccc2)C2=C(Nc3n[nH]cc31)[C@H](C)C[C@@H](C)C2=O", "note": "[Compound 865201]", "values": [{"measurement": "IC50", "setting": "[1]; [3]", "value": "≤ 0.1", "unit": "µM"}, {"measurement": "IC50", "setting": "[2]; [4]", "value": "0.1 to 1", "unit": "µM"}]}
{"smiles": "CC[C@@]1(c2ccccc2)C2=C(Nc3n[nH]cc31)[C@@H](C)C[C@H](C)C2=O", "note": "[Compound 865202]", "values": [{"measurement": "IC50", "setting": "[1]; [3]", "value": "> 5", "unit": "µM"}, {"measurement": "IC50", "setting": "[2]; [4]", "value": "> 5", "unit": "µM"}]}
{"smiles": "CCC1(c2cccc(C(F)(F)F)c2)C2=C(CCNC2=O)Nc2n[nH]cc21", "note": "(centres unmarked) [Compound 870263]", "values": [{"measurement": "IC50", "setting": "[1]; [7]", "value": "0.1 to 1", "unit": "µM"}, {"measurement": "IC50", "setting": "[2]; [8]", "value": "> 5", "unit": "µM"}]}
